# Assay results published in patent US9604931B2, “Nuclear receptor binding agents” (GTx, Inc., priority 2007, dated 2017).
# Entries after “also recorded” stand apart in the source; their conditions may differ.
# Assays:
# uterus = test: Uterotropic assay; conditions: 10 mg/kg/day orally, 3 days
# Procedure: Statistical differences among groups were evaluated by one-way ANOVA. Rats were treated for 3 consecutive days and then sacrificed 24 h after the last dose. The body of the uterus was cut just above its junction with the cervix and at the junction of the uterine horns with the ovaries. The uterus was weighed with and without intrauterine fluid. Statistical comparisons were made between the weights of empty uteri.
# [1] = tested on: Rat Aortic Smooth Muscle Cells (RASMC); test: RASMC cell proliferation assay (WST-1); type: cell-based; conditions: 10 μM and 30 μM
# Procedure: EC50 values were calculated using WinNonLin 5.0.1 using the inhibitory effect sigmoid Emax model.
# ARPE-19 cells = test: Fluorescent detection of intracellular ROS; type: cell-based, Human; conditions: 150 μM tBH
# Source text: Cells were allowed to adhere overnight. […] Removed and washed cells once with HBSS. […] Each drug concentration was done in triplicates.
# [2] = tested on: LPS induced THP-1 macrophage cell adhesion to bEND-3 endothelial cells; test: Macrophage adhesion assay; type: cell-based
# Procedure: To determine the anti-inflammatory effects of ER-β NRBAs in vitro, a macrophage adhesion assay was performed. Macrophages adhere to endothelial cells due to elevated levels of pro-inflammatory cytokines. This principle was used in this assay to determine the effect of one of the ER-NRBAs on bacterial lipopolysaccharide (LPS) induced THP-1 macrophage cell adhesion to bEND-3 endothelial cells.
# rat aorta rings = test: Rat aortic ring relaxation; conditions: 10^-6 PE constriction
# Source text: Experimental protocol. Equipment used in these studies included a 4-tissue bath system with reservoirs and circulators (RadnotiGlass Technology, Monrovia, Calif.), DSI/Ponemah tissue force analyzer 7700 (Valley View, Ohio), and iWorx/CB Sciencesforce transducers FT-302. The 250 g rats were anesthetized with isoflurane to produce deep anesthesia. The chest of the rat was opened, and about 3 cm length of aorta was removed and placed in a Petri dish containing room temperature Krebs salt solution (KSS, in mM: 120 NaCl, 5 KCl, 1.2 MgSO4.7H20, 2.5 CaCl2.2H2O, 1 KH2PO4, 25 NaHCO3, and 11 glucose). Fat and connective tissue were removed from the aorta taking care not to stretch the vessel. The aorta was then divided into 3-mm-wide rings. Triangular wire holders were inserted through the lumen of the vessel and connected to the force transducer and tissue holder rod in the vessel bath.
# Analog-to-digital conversions of force waveforms were accomplished with a DSI/Ponemah tissue force analyzer 7700. The converted data were automatically analyzed with Ponemah Physiology-Smooth Muscle software. All data are summarized as means±standard error. Differences between means were assessed by a conventional ANOVA. This was followed by Student's test. P<0.05 was considered to be statistically significant.
# The tension on the rings was adjusted to 1.0 g passive force using the tension adjustment dial for each transducer and allowed to equilibrate for 60 min in the bath with a 95% O2-5% CO2 gas mixture. The rings were washed with fresh buffer every 20 min. Passive force was readjusted to 1.0 g as needed during this period. When rings were stable at 1.0 g of passive force, the baseline was calculated.
# Phenylephrine (PE) at a final concentration of […] was added to the bath to contract the ring, and force was allowed to stabilize for 10 min. Then acetylcholine (ACH) at a final concentration of 10^−5 M was added to the precontracted rings to test for endothelial integrity […]. After the initial test for vessel viability and endothelial integrity, the rings were washed three times for 10 min with buffer, allowing it to equilibrate to active force stabilized at 1 g.
# Cumulative concentration-response curves to NRBAs were created by increasing the NRBAs concentration in the tissue bath by successive addition of appropriate dilutions of stock solutions to achieve final bath concentrations of 300 nM to 0.15 mM NRBAs.
# Table 10 summarizes EC50 values and maximal % decrease of the 10^−6 PE constriction of the aortic ring for individual NRBAs tested
# ER-β = ER-β (Rattus norvegicus (Rat), UniProt Q62986); test: ER-β transactivation (ERE-LUC) in COS or 293 cells; type: cell-based
# ER-α = ER-α (Rattus norvegicus (Rat), UniProt P06211); type: cell-based
# Procedure: COS or 293 cells were plated in DME without phenol red+10% cs FBS at 90,000 cells per well in 24 well plates, and were transfected with 0.25 μg of the vector “ERE-LUC”, where a firefly luciferase gene was driven by two estrogen responsive elements and 0.02 μg of the control CMV-LUC, Renilla where a luciferase gene was driven by a CMV promoter. […] All the receptors were cloned from rat tissue into the PCR3.1 vector backbone. Twenty four hours post transfection, cells were treated with compounds of this invention, estrogen, DHT, and other NRBAs or combinations thereof. Cells were harvested 48 hrs after transfection, and assayed for firefly and Renilla luciferase activity.
# [3] = target: ERβ ligand binding domain (Homo sapiens, UniProt Q92731); test: Competitive [3H]-estradiol binding assay, ER-β (Example 21); conditions: for inhibition at 0.1 µM: read-out: Percent Inhibition of [3H]-Estradiol Binding to ER-β
# Procedure: (§1) ER binding affinity was determined via one of the following methods:
# (§2) Briefly, the incubation mixture was filtered through a high affinity protein binding filter, and washed several times to remove any unbound radioactivity. The filter plate was air dried and sealed on the bottom.
# (§3) Nonspecific binding was subtracted from total binding to yield specific binding.
# [4] = target: ERα ligand binding domain (Homo sapiens, UniProt P03372); test: Competitive [3H]-estradiol binding assay, ER-α (Example 21); conditions: 100 nM of compound; read-out: Percent Inhibition of [3H]-Estradiol Binding to ER-α
# Procedure: as §1, §2, §3
# [5] = tested on: LNCaP cells and human prostate stromal cells xenograft; test: LNCaP-stromal cell xenograft tumor growth; type: in vivo, nude mice; conditions: 30 mg/kg/day for 21 days
# Procedure: Prostate tumor xenografts were established with LNCaP cells and human prostate stromal cells in nude mice to establish the in vivo anti-proliferative effects of these ER-β NRBAs. A 4:1 ratio (based on cell number) of LNCaP:stroma cells was injected subcutaneously in nude mice and allowed to grow until they attained 100 mm^3 in volume, as measured by calipers. […] Tumor volumes were measured twice a week and percent tumor volume calculated, after 10, 14 and 21 days.
# Cyp 3A and/or Cyp 2C9 = test: Cyp inhibition (data not shown); type: in vitro ADME
# [6] = tested on: LNCaP prostate cancer cells; test: 3H thymidine incorporation, LNCaP cells; type: cell-based; conditions: 6 days treatment
# Procedure: (§4) The effects of treatment of an ER-β selective NRBA of this invention on cancer cell proliferation was examined using LNCaP prostate cancer cells and C-26 colon cancer cells. LNCaP or C-26 cells were plated in growth medium in 24 well and 6 well plates, respectively. LNCaP cells were treated for 6 days and C-26 cells were treated for 3 days at the indicated concentration. ^3H thymidine incorporation was measured at the end of treatment as an indicator of cell proliferation.
# [7] = tested on: Carrageenan-induced paw edema; test: Carrageenan-induced paw edema; type: in vivo; conditions: per-oral, 1 hr prior to Carrageenan; measured 4 hours post-Carrageenan
# Procedure: FIG. 14 depicts the effect of 12b on the edema volume which was induced by Carrageenan (i.e. Carrageenan-induced […] as an acute inflammation model).
# To determine the anti-inflammatory effects of ER-β NRBAs in vivo, animal paws were injected with carrageenan, which elicits an acute local inflammatory response.
# C-26 colon cancer cells = test: 3H thymidine incorporation, C-26 cells; type: cell-based; conditions: 3 days treatment
# Procedure: as §4
# Chain of ER-β (Q62986 whole entry): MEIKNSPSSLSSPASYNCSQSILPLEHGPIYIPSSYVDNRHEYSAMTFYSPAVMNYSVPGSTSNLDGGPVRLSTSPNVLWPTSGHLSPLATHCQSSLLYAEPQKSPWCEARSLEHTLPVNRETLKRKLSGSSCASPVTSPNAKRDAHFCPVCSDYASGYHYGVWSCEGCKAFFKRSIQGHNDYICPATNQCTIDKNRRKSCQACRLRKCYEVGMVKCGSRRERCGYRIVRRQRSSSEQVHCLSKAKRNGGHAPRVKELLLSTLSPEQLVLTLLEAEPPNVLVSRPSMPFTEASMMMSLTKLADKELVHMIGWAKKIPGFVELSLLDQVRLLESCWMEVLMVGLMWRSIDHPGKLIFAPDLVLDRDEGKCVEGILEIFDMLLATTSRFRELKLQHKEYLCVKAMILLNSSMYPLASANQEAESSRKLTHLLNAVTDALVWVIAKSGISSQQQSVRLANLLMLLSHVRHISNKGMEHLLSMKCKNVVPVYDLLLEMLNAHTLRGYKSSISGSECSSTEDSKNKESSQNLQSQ
# Chain of ERβ ligand binding domain (Q92731 whole entry, looked up, the tested form may be a part): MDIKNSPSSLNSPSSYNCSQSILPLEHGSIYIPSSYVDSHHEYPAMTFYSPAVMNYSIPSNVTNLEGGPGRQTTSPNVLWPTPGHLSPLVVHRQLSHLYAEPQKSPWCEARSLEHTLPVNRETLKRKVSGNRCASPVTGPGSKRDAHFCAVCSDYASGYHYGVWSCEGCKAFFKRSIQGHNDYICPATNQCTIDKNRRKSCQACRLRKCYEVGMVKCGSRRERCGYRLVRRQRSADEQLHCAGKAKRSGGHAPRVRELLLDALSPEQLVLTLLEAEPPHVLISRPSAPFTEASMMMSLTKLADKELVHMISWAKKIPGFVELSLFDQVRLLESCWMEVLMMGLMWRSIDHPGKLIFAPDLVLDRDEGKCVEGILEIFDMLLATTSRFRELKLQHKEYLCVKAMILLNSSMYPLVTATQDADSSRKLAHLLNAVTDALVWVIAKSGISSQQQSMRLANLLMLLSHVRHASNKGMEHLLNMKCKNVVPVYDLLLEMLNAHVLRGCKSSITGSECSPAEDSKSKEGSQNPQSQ
# Chain of ERα ligand binding domain (P03372 whole entry, looked up, the tested form may be a part): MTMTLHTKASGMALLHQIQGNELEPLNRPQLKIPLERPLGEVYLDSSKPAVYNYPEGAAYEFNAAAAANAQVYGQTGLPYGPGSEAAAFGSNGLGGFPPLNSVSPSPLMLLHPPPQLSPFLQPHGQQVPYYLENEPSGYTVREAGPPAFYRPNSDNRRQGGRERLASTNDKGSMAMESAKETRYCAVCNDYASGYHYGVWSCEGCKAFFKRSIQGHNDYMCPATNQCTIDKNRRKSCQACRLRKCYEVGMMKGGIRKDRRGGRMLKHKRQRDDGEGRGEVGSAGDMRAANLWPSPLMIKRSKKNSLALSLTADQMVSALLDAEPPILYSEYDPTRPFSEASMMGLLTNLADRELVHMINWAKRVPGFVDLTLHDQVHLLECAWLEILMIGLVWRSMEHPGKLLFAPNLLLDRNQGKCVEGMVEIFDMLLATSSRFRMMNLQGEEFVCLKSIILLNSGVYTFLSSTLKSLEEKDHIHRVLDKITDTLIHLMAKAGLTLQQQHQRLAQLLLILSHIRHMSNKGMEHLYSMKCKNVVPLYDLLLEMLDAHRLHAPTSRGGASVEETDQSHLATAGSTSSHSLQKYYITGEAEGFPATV
compound,measurement,setting,value
"CC/C(=C(\c1ccccc1)c1ccc(OCCN(C)C)cc1)c1ccccc1 [Tamoxifen, reference compound]",Uterine weight / proliferation of uterus,uterus,stimulated the proliferation of uterus significantly
same,Toxicity to RASMC (cell numbers reduced compared to day 0),[1],toxicity
"O=c1c2c(O)cc(O)cc2c(Cl)cn1-c1ccc(O)cc1 [12y, 4-chloro-6,8-dihydroxy-2-(4-hydroxyphenyl)isoquinolin-1(2H)-one]",Inhibition of ROS formation,ARPE-19 cells,more than 50%
same,Prevention of ROS formation / oxidative stress,ARPE-19 cells,protected ARPE-19 cells from oxidative damage
same,Adhesion of 3H labeled THP-1 cells to bEND-3 cells,[2],significantly inhibited
same,Mean of Maximal % Decrease of the PE constriction of the aortic ring,rat aorta rings,80.63%
same,EC50,rat aorta rings; Rattus norvegicus,13.2 µM
same,ER-β agonist activity,ER-β,ER-β agonist activity
same,Classification as ER-α agonist,ER-α,ER-α agonists
same,Ki Ratio (ER-α/ER-β),[3],11
same,inhibition at 0.1 µM,[3],97.5%
same,inhibition at 0.1 µM,[4],51.9%
"O=c1c2ccc(O)cc2c(Br)cn1-c1ccc(O)cc1 [12b, 4-bromo-6-hydroxy-2-(4-hydroxyphenyl)-isoquinolin-1(2H)-one]",Xenograft tumor growth,[5],inhibited the growth of tumor significantly
same,Inhibition of Cyp 3A and/or Cyp 2C9,Cyp 3A and/or Cyp 2C9,exception
same,ER-β agonist activity,ER-β,ER-β agonists; also recorded: ER-β agonist activity
same,activation at 0.1 µM,"ER-β; HEK293, 48 h, read-out: Estradiol activity at 100 nM of NRBA, ER-β, 100 nM compound compared to 1 nM estradiol",79%
same,"Estradiol activity at 100 nM of NRBA, ER-α",ER-α; 100 nM compound compared to 1 nM estradiol,31.2%
same,Ki Ratio (ER-α/ER-β),[3],20
same,Ki,[3]; read-out: ER-β binding constant (Ki),0.049 µM
same,inhibition at 0.1 µM,[3],53.6%
same,Growth of LNCaP prostate cancer cells,[6],significantly inhibited
same,Reduction in paw edema,[7],53%
same,Growth of C-26 colon cancer cells,C-26 colon cancer cells,significantly inhibited
same,inhibition at 0.1 µM,[4],0%
